Legend:
Assay in all cases: relative viability (nuclei count vs DMSO), 5 days (fraction); higher = more cells survive
[1] = compound: C1/C(=C\C2=CC=CS2)/C(=O)/C(=C/C3=CC=CS3)/C1 + CS(=O)(=O)N1CCN(Cc2cc3nc(-c4cccc5[nH]ncc45)nc(N4CCOCC4)c3s2)CC1 [Pictilisib] (partner 1 µM)
How it was run: (§1)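 Lung cancer cell lines were seeded in 1536-well plates and dosed by pin tool the next day, with either a single drug or a fixed anchor-drug dose combined with five library-drug doses (not always all listed) spaced in √10 steps. Five days later, one step fixed the cells and stained their nuclei (final 0.05% Triton X-100, 1% formaldehyde, 1 ug/ml Hoechst), and nuclei were counted on 4× images. Relative viability is the nuclei count in treated wells divided by the count in vehicle wells, and each value is the median of duplicate plates.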

[2] = compound: C[C@]12O[C@H](C[C@]1(O)CO)n1c3ccccc3c3c4c(c5c6ccccc6n2c5c31)CNC4=O [Lestaurtinib] + CC1(C)CCC(c2ccc(Cl)cc2)=C(CN2CCN(c3ccc(C(=O)NS(=O)(=O)c4ccc(N[C@H](CCN5CCOCC5)CSc5ccccc5)c(S(=O)(=O)C(F)(F)F)c4)cc3)CC2)C1 [Navitoclax] (partner 0.5 µM)
How it was run: as §1

[3] = compound: C[C@]12O[C@H](C[C@]1(O)CO)n1c3ccccc3c3c4c(c5c6ccccc6n2c5c31)CNC4=O [Lestaurtinib] + C[C@]1(O)C[C@@H](c2nc(-c3ccc4ccc(-c5ccccc5)nc4c3)c3c(N)nccn32)C1 [Linsitinib] (partner 1 µM)
How it was run: as §1

TPCA-1 + Lapatinib = compound: C1=CC(=CC=C1C2=CC(=C(S2)NC(=O)N)C(=O)N)F [TPCA-1] + CS(=O)(=O)CCNCc1ccc(-c2ccc3ncnc(Nc4ccc(OCc5cccc(F)c5)c(Cl)c4)c3c2)o1 [Lapatinib] (partner 2 µM)
How it was run: as §1

Row | Cell Line | relative viability ([1]; first compound 0.2 µM) | relative viability ([1]; first compound 0.6325 µM) | relative viability ([1]; first compound 2 µM) | relative viability ([1]; first compound 6.325 µM) | relative viability ([1]; first compound 20 µM) | relative viability ([2]; first compound 0.005 µM) | relative viability ([2]; first compound 0.01581 µM) | relative viability ([2]; first compound 0.05 µM) | relative viability ([2]; first compound 0.1581 µM) | relative viability ([2]; first compound 0.5 µM) | relative viability ([3]; first compound 0.005 µM) | relative viability ([3]; first compound 0.01581 µM) | relative viability ([3]; first compound 0.05 µM) | relative viability ([3]; first compound 0.1581 µM) | relative viability ([3]; first compound 0.5 µM) | relative viability (TPCA-1 + Lapatinib; first compound 0.04 µM) | relative viability (TPCA-1 + Lapatinib; first compound 0.1265 µM) | relative viability (TPCA-1 + Lapatinib; first compound 0.4 µM) | relative viability (TPCA-1 + Lapatinib; first compound 1.265 µM) | relative viability (TPCA-1 + Lapatinib; first compound 4 µM)
1 | NCI-H322M | 0.541 | 0.526 | 0.654 | 0.538 | 0.522 | 1.28 | 0.977 | 0.563 | 0.463 | 0.461 | 0.853 | 0.649 | 0.375 | 0.425 | 0.392 | 0.646 | 0.612 | 0.589 | 0.65 | 0.492
2 | NCI-H2228 | 0.337 | 0.362 | 0.479 | 0.295 | 0.287 | 0.985 | 1.29 | 0.839 | 0.554 | 0.162 | 0.892 | 0.812 | 0.402 | 0.284 | 0.37 | 1.54 | 0.867 | 1.32 | 0.853 | 0.537
3 | NCI-H1395 | 0.618 | 0.73 | 0.67 | 0.448 | 0.581 | 1.38 | 1.28 | 1.06 | 0.912 | 0.413 | 1.07 | 1.2 | 0.836 | 0.894 | 0.421 | 1.09 | 1.06 | 1.02 | 0.935 | 0.75
4 | NCI-H520 | 0.284 | 0.369 | 0.303 | 0.277 | 0.311 | 1.11 | 1.15 | 1.05 | 0.455 | 0.319 | 0.944 | 1.14 | 0.632 | 0.549 | 0.256 | 0.905 | 0.752 | 0.879 | 0.756 | 0.168

From the supplement of paper PMC10307832
